Measurements: US7893108B2, “Antiviral methods and compositions” (priority 2004, dated 2011)
Where “and” joins values, the source holds several entries; their conditions need not be identical. Identical values can stand only once. Like-named read-outs stand apart in the source and are kept apart here.

Legend:
HCMV AD169 = assay: virus yield reduction assay; type: cell-based, human cytomegalovirus
Procedure: Next, we tested the effects of selected compounds and of GCV as a control in viral yield assays, which measure the titer of virus progeny produced following infection at relatively high multiplicity. In these assays, the viral titer was measured at two different times points post-infection (p.i.): at 96 hrs, when the release of virus progeny is increasing, and at 120 hrs, when the titer of virus progeny after a single cycle of replication reaches peak levels (Stinski, 1983).
(§1) For yield reduction assays, HFF cells were plated at 2×10^4 cells per well in 96-well cluster dishes, incubated overnight, and infected with HCMV AD169 at a multiplicity of infection (MOI) of 1. After virus adsorption for 2 hr at 37° C., cells were washed and incubated with 200 μl of fresh media containing test compounds at increasing drug concentration. Plates were incubated for 3 or 5 days at 37° C. and subjected to one cycle of freezing and thawing, and titers were determined by transferring 100-μl aliquots from each of the wells to a fresh 96-well monolayer culture of HFF cells followed by 1:5 serial dilution across the plate. Cultures were incubated for 7 days, cells were stained, and the numbers of plaques were determined as described above.
as §1, with “The effect of the compounds was assessed in an assay of virus yield. In this assay, cells are infected at a relatively high multiplicity of infection (about one per cell) and then drug is added. The virus produced at the different times post infection is measured. 120 hrs. is about the peak titer. This assay was conducted as follows.” for “For yield reduction assays,”, “20,000” for “2×10^4”, “an MOI” for “a multiplicity of infection (MOI)”, “0.1, 0.3, 1, 3, 10, 30 μM” for “increasing”

UL54 plus GST-UL44ΔC290 = target: T1, UL54 plus GST-UL44ΔC290 (Human cytomegalovirus, UniProt P16790); assay: long-chain DNA synthesis by UL54 in the presence of UL44; type: biochemical, HCMV; conditions: for inhibition of long-chain DNA synthesis by UL54 and UL44: dose-response
T1 construct: GST-UL44ΔC290 fusion protein, which contains the N-terminal 290 residues of HCMV UL44; made in house; host or cells: UL54: in vitro transcription/translation; GST-UL44ΔC290: E. coli BL21 (DE3)pLysS
Procedure: To analyze the ability of the compounds to interfere with functional UL54-UL44 interactions, we tested their ability to inhibit long-chain DNA synthesis by UL54 in the presence of UL44 employing a poly(dA)-oligo(dT)12-18 template-primer.
DNA polymerase assays. The effects of compounds were tested in an assay that measures long-chain DNA synthesis as described in Loregian et al. (Loregian et al., 2004a), with 5 μl of in vitro-transcribed and -translated UL54 plus 800 fmol of GST-UL44ΔC290 in the absence or in the presence of various amounts of each compound.
The effect of the compounds was also tested in an assay that measures long chain (Lc) DNA synthesis as described in Loregian et al., J. Virol. […]

[1] = target: T2, full-length UL54 / UL44 interaction (Human cytomegalovirus, UniProt P16790); assay: UL54-UL44 interaction ELISA; type: binding, HCMV; conditions: concentrations up to 200 μM
T2 construct: made in house; host or cells: baculovirus expression; proteins provided by H. S. Marsden (Institute of Virology, Glasgow)
Procedure: In this assay, binding between purified baculovirus-expressed UL54 and UL44, which was tagged with an EEF epitope, was detected using an antibody that recognizes the epitope tag (Loregian et al., 2003).
UL54-UL44 interaction ELISA. This assay was conducted as described in (Loregian et al., 2003), testing various concentrations of each compound. After final washes, the chromogenic substrate 2,2′-azino-bis(3-ethylbenzothiazoline-6-sulphonic acid (ABTS, Pierce) in citrate phosphate buffer (pH 4.0) containing 0.01% hydrogen peroxide was added and absorbance was read at 405 nm on a Victor plate reader (Wallac).
Another assay that was used to test the effect of the compounds on the interaction of UL44 and UL54 is an ELISA interaction assay, which measures the interaction of the two full length proteins with each other. This assay was conducted as described in Loregian et al., J. Virol. 2003, 77:8336-8344, testing different concentrations (0, 3.12, 6.25, 12.5, 25, 50, 100, 200 μM) of each compound.

HFF cells = assay: XTT cytotoxicity assay; type: cell-based, human
Procedure: Cytotoxicity assays. HFF cells were seeded at 2×10^4, 4×10^3, or 10^3 cells per well into 96-well plates and, after a 3-hr incubation to allow cell attachment, were treated for 24, 72, or 120 hr, respectively, with various concentrations of each compound in duplicate. Cell viability was then determined with an XTT assay (Roche Molecular Biochemicals) according to the manufacturer's protocol by using a Victor plate reader (Wallac).
The cytotoxicity of the compounds was measured in an XTT assay. XTT is a compound that is converted to a product that can be measured […], but only by viable cells. This assay is as follows. HFF (human foreskin fibroblasts) cells were seeded at different concentrations into 96-well plates and treated with various concentrations (from 0 to 200 μM) of each compound in duplicate for 24, 72 or 120 hr. Cell viability was then determined with an XTT assay (Roche Molecular Biochemicals) according to the manufacturer's protocol by using a Victor plate reader (Wallac).

HCMV strain AD169 = assay: plaque reduction assay; type: cell-based, human cytomegalovirus; conditions: HFF cells; 0-30 μM
Procedure: Antiviral assays. Plaque reduction assays were performed essentially as follows: HFF (human foreskin fibroblast) cells were seeded at 2×10^5 cells per well in 24-well cluster dishes. The next day, cells were infected with HCMV (strain AD169) at 80 PFU per well in DMEM plus 5% fetal bovine serum (FBS) at 37° C. Two hours post-infection, the inocula were removed, cells were washed, and media containing various drug dilutions, 5% FBS, and 0.6% methylcellulose were added. All drug dilutions were tested at least in duplicate. After incubation at 37° C. for 10-11 days, cell monolayers were stained with crystal violet and plaques were counted under light microscopy.
The effect of the compounds was assessed in a plaque reduction assay that measures the number of plaques formed in the presence of varying concentrations of a drug, as follows. HFF were seeded at 2×10^5 cells per well in 24-well cluster dishes. The next day, they were infected with HCMV AD169 at 80 PFU per well in DMEM plus 5% FBS at 37° C. Two hr post-infection, the inocula were then removed, cells were washed, and media containing selected drug dilutions (0, 0.1, 0.3, 1, 3, 10, 30 μM), and 5% FBS and 0.6% methylcellulose were added. All drug dilutions were tested at least in duplicate. After incubation at 37° C. for 10-11 days, cell monolayers were stained with crystal violet and plaques were enumerated under light microscopy.

[2] = target: T3, GST-UL44ΔC290 / UL54-derived peptide interaction (Human cytomegalovirus, UniProt P16790); assay: biochemical; type: binding, HCMV; conditions: 2.5 μM GST-UL44ΔC290 and 3 nM labeled peptide
T3 construct: GST-UL44ΔC290 fusion protein, which contains the N-terminal 290 residues of HCMV UL44; made in house; host or cells: E. coli BL21 (DE3)pLysS
From the text: To identify small molecule inhibitors of the UL54-UL44 interaction, we developed an assay based on fluorescence polarization (FP) (Dandliker et al., 1981). In this assay, a peptide corresponding to the C-terminal 22 residues of UL54 (here named peptide 1, as in Loregian et al. (Loregian et al., 2003)), which was labeled with the fluorophore Oregon Green, is mixed with UL44ΔC290, a truncated protein which retains all known biochemical activities of full-length UL44 (Loregian et al., 2004b), fused to glutathione S-transferase (GST-UL44ΔC290).
We next investigated whether this assay could detect a known inhibitor of the UL54-UL44 interaction. To this end, a binding reaction of 2.5 μM GST-UL44ΔC290 and 3 nM labeled peptide was titrated with increasing concentrations of unlabeled peptide 1 (FIG. 4B).
FP assays. Unless otherwise indicated, […] of Oregon Green-labeled peptide 1 was added to 2.5 μM GST-UL44ΔC290 in 50 mM Tris-HCl (pH 7.5), 2 mM dithiothreitol, 0.5 mM EDTA, 150 mM NaCl, 4% glycerol and 100 μg/ml bovine serum albumin and kept on ice until the mix was distributed into black 384-well plates (Nunc) in a total volume of 40 μl per well. For high throughput screening, small molecules (5 mg/ml in DMSO) of the Maybridge, Bionet, Peakdale, ChemDiv, and Chembridge Microformat libraries were obtained from the ICCB, and 100 nl of each compound were transferred to individual wells using 384-pin arrays. All compounds were tested in duplicate. As controls, reaction mixtures containing either labeled peptide 1 only, or GST-UL44ΔC290 plus labeled peptide 1 (no compound), or GST-UL44ΔC290 plus labeled peptide 1 in the presence of 3 μM or 20 μM of unlabeled peptide 1, were included on each screening plate. After 15-min incubation at room temperature, FP values were determined by using an Analyst plate reader (LJL Biosystems) at the ICCB.
A fluorescence polarization (FP) assay was used to identify compounds that inhibit HCMV polymerase subunit interactions. Compounds from the Harvard Institute of Chemistry and Cell Biology (ICCB, Harvard Medical School) were screened as follows. 3 nM of a synthetic peptide corresponding to the C-terminal 22 residues of HMCV UL54 (termed peptide 1 in Loregian et al., J. Virol. 2003, 77:8336-8344) and N-terminally labeled with Oregon Green was added to 2.5 μM GST-UL44ΔC290 in 50 mM Tris-HCl (pH 7.5), 2 mM DTT, 0.5 mM EDTA, 150 mM NaCl, 4% Glycerol and 100 μg/ml bovine serum albumin and kept on ice until the mix was distributed into black 384-well plates (Nunc) in a total volume of 40 μl per well. […] After 5-min incubation at room temperature, the FP values were determined by using an Analyst plate reader (LJL Biosystems) at the ICCB. […]

[3] = IC50 for inhibition of FP (UL44-UL54 peptide interaction)
[4] = read-out: IC50 for inhibition of FP (UL44-UL54 peptide interaction)

T1 sequence (P16790 1-290, stated change not applied): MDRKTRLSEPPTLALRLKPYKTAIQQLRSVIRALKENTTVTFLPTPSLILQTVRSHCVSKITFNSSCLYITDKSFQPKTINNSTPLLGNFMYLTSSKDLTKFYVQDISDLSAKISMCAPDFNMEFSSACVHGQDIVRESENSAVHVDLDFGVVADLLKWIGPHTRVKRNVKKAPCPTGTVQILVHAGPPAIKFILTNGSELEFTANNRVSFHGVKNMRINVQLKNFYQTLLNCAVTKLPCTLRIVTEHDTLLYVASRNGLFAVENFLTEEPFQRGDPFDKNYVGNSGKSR
T3 sequence (P16790 1-290, stated change not applied): as above
T2 sequence (P16790 whole entry): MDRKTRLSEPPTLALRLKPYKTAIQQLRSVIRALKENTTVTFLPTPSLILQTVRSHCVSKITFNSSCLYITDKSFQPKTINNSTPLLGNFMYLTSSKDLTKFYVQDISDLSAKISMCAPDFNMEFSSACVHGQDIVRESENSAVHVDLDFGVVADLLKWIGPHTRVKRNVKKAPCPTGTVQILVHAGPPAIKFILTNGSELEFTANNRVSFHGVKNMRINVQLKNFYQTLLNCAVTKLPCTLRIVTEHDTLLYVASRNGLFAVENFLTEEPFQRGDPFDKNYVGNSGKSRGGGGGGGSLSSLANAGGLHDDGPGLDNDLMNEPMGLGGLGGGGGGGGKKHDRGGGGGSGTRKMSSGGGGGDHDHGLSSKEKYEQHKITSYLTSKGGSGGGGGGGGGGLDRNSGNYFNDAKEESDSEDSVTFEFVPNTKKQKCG

Structure (SMILES): CCOc1cc(C2C(C#N)=C(N)Oc3n[nH]c(-c4ccccc4)c32)cc([N+](=O)[O-])c1O (stereo not drawn) [AL1]
- effect on virus yield / HCMV replication (HCMV AD169): little or no effect
- inhibition of long-chain DNA synthesis by UL54 and UL44 (UL54 plus GST-UL44ΔC290): little or no inhibition

Structure (SMILES): CCOc1cc(C2C(C#N)=C(N)Oc3n[nH]c(-c4ccc(Cl)cc4)c32)cc([N+](=O)[O-])c1O (stereo not drawn) [AL3]
- effect on virus yield / HCMV replication (HCMV AD169): little or no effect
- inhibition of the UL54-UL44 physical interaction [1]: did not significantly inhibit
- inhibition of long-chain DNA synthesis by UL54 and UL44 (UL54 plus GST-UL44ΔC290): little or no inhibition

Structure (SMILES): CCOc1cc(C2C(C#N)=C(N)Oc3n[nH]c(-c4cc(OC)c(OC)c(OC)c4)c32)cc([N+](=O)[O-])c1O (stereo not drawn) [AL4]
- effect on virus yield / HCMV replication (HCMV AD169; HFF cells): little or no effect

Structure (SMILES): Cn1c(=O)cc2c3c(c(N4CCCCC4)ccc31)C(=O)c1ccccc1-2 [AL5]
- effect on virus yield / HCMV replication (HCMV AD169): relatively low IC50s
- inhibition of the UL54-UL44 physical interaction [1]: potent
- cytotoxic concentration relative to antiviral concentration (HFF cells): 7-500 fold
- cytotoxicity (HFF cells): relatively high CC50's
- IC50s in plaque reduction assay (HCMV strain AD169): relatively low IC50s
- inhibition of long-chain DNA synthesis by UL54 and UL44 at one concentration (UL54 plus GST-UL44ΔC290; 40 μM): severely decreased formation of long DNA products
- inhibition of long-chain DNA synthesis by UL54 and UL44 (UL54 plus GST-UL44ΔC290): relatively low IC50s

Structure (SMILES): COc1ccccc1C=C1N=C(c2ccc(OC)c(OC)c2)N(c2cccc(F)c2)C1=O [AL6]
- cytotoxicity (HFF cells): significant cytotoxicity

Structure (SMILES): Cc1ccc(-c2nc3nc(-c4ccc(Br)cc4)cn3nc2-c2ccc(C)cc2)cc1 [AL8]
- IC50 [2, 3]: < 50 µM and 5 to 30 µM
- inhibition of long-chain DNA synthesis by UL54 and UL44 (UL54 plus GST-UL44ΔC290): inactive

Structure (SMILES): CCN1C=CC(=CC=Cc2ccc3ccccc3[n+]2CC)c2ccccc21 [AL10]
- cytotoxicity (HFF cells): significant cytotoxicity
- IC50 [2, 3]: < 50 µM and 5 to 30 µM

Structure (SMILES): CCn1c2ccccc2c2cc3cc4ccccc4cc3cc21 [AL11]
- cytotoxicity (HFF cells): significant cytotoxicity

Structure (SMILES): CN(C)c1ccc2nc3c(=O)[nH]c(=O)[nH]c3nc2c1 [AL13]
- cytotoxicity (HFF cells): significant cytotoxicity
- IC50 [2, 4]: 50 µM

Structure (SMILES): CNC(=S)NN=Cc1cc(Br)ccc1O [AL14]
- cytotoxicity (HFF cells): significant cytotoxicity

Structure (SMILES): O=C1CC(=O)c2c1cccc2[N+](=O)[O-] [AL15]
- IC50 [2, 4]: 60 µM

Structure (SMILES): O=C1c2cccc3c([N+](=O)[O-])ccc(c23)C(=O)N1Cc1cccnc1 [AL19]
- cytotoxicity (HFF cells): significant cytotoxicity
